# Results: ChEMBL document CHEMBL2086262, “Ligand-based designing, in silico screening, and biological evaluation of new potent fructose-1,6-bisphosphatase (FBPase) inhibitors” (Eur J Med Chem, 2012)
# Experiment: Inhibition of human recombinant FBPase using fructose-1,6-biphosphate as substrate incubated for 3 mins prior to substrate addition by spectrophotometric analysis
row,Structure (SMILES),IC50
1,O=C(O)Cc1c(C(=O)O)[nH]c2cc(Cl)cc(Cl)c12,> 10 µM
2,COc1cc2ncnc(Nc3cccc(Br)c3)c2cc1[N+](=O)[O-],> 10 µM
3,CCOc1cc2ncnc(Nc3cc(-c4csc(C)n4)cc(C(F)(F)F)c3)c2cc1OCC,> 10 µM
4,COc1cc2nc(C)nc(Nc3cccc(Br)c3)c2cc1OC,4.5 µM
5,COCCOc1cc2ncnc(Nc3cccc(Br)c3)c2cc1OCCOC,> 10 µM
6,COCCOc1cc2c(Nc3cccc(-c4csc(C)n4)c3)ncnc2cc1OC,> 10 µM
7,CCOc1cc2nc(CC(C)C)nc(Nc3cccc(Br)c3)c2cc1OCC,> 10 µM
8,CCOc1cc2ncnc(Nc3cccc(-c4csc(N(C)C)n4)c3)c2cc1OCC,8 µM
9,CCOc1cc2nc(CN3CCCC3)nc(Nc3cccc(-c4csc(C)n4)c3)c2cc1OCC,6.1 µM
10,CCCCOc1ccc2ncnc(Nc3cccc(Br)c3)c2c1,> 10 µM
11,CCOc1cc2ncnc(Nc3ccc(F)c(-c4csc(C)n4)c3F)c2cc1OCC,> 10 µM
12,Cc1nc(-c2cccc(Nc3ncnc4cc5ccccc5cc34)c2)cs1,> 10 µM
13,CCOc1cc2ncnc(Nc3cc(-c4csc(C)n4)ccc3Br)c2cc1OCC,> 10 µM
14,COC(=O)CCc1c(C(=O)O)[nH]c2cc(Cl)cc(Cl)c12,7 µM
15,O=C(O)CCc1c(C(=O)NO)[nH]c2cc(Cl)cc(Cl)c12,> 10 µM
16,NC(=O)c1[nH]c2cc(Cl)cc(Cl)c2c1CCC(=O)O,> 10 µM
17,CCOc1cc2ncnc(Nc3cccc(-c4csc(COC)n4)c3)c2cc1OCC,7.3 µM
18,CCOc1nc(-c2cccc(Nc3ncnc4cc(OCC)c(OCC)cc34)c2)cs1,6.1 µM
19,CCOc1cc2nc(CN3CCOCC3)nc(Nc3cccc(Br)c3)c2cc1OCC,> 10 µM
20,CCOc1cc2nc(-c3ccccc3)nc(Nc3cccc(Br)c3)c2cc1OCC,> 10 µM
21,COCCOc1cc2ncnc(Nc3cccc(-c4csc(C)n4)c3)c2cc1OC,> 10 µM
22,CCOc1cc2ncnc(Nc3cccc(C#N)c3)c2cc1OCC,> 10 µM
23,CCOc1cc2nc(CS(C)(=O)=O)nc(Nc3cccc(Br)c3)c2cc1OCC,> 10 µM
24,CCOc1cc2ncnc(Nc3cccc(C(C)=O)c3)c2cc1OCC,> 10 µM
25,CCOc1cc2ncnc(Nc3ccc(Cl)c(-c4csc(C)n4)c3)c2cc1OCC,5.3 µM

# Now those with a lower IC50, led by results:
row,IC50,Structure (SMILES)
1,2.7 µM,O=C(O)c1[nH]c2cc(Cl)cc(Cl)c2c1CCCO
2,3.5 µM,CCOc1cc2ncnc(Nc3cccc(-c4csc(N)n4)c3)c2cc1OCC
3,0.99 µM,CCOc1cc2ncnc(Nc3cc(-c4csc(C)n4)ccc3OC)c2cc1OCC
4,2.1 µM,CCOc1cc2ncnc(Nc3cccc(I)c3)c2cc1OCC
5,0.83 µM,CCOc1cc2ncnc(Nc3cccc(-c4nc(C(N)=O)cs4)c3)c2cc1OCC
6,4.1 µM,CCOc1cc2nc(CCCCl)nc(Nc3cccc(-c4csc(C)n4)c3)c2cc1OCC
7,0.98 µM,CCOc1cc2ncnc(Nc3cccc(-c4cncs4)c3)c2cc1OCC
8,1.4 µM,CCOc1cc2nc(COC)nc(Nc3cccc(-c4csc(C)n4)c3)c2cc1OCC
9,1.4 µM,CCOc1cc2ncnc(Nc3cccc(-c4ccco4)c3)c2cc1OCC
10,0.39 µM,CCOc1cc2ncnc(Nc3cccc(-c4ccccn4)c3)c2cc1OCC
11,1.7 µM,CCOc1cc2nc(CC(C)C)nc(Nc3cccc(-c4csc(C)n4)c3)c2cc1OCC
12,3.6 µM,CCOc1cc2ncnc(Nc3cccc(-c4cocn4)c3)c2cc1OCC
13,0.39 µM,CCOc1cc2ncnc(Nc3cccc(-c4cscn4)c3)c2cc1OCC
14,1 µM,CCOc1cc2nc(CCCl)nc(Nc3cccc(-c4csc(C)n4)c3)c2cc1OCC
15,0.53 µM,CCOc1cc2ncnc(Nc3ccc(F)c(Cl)c3)c2cc1OCC
16,1.3 µM,COc1cc2c(Nc3cccc(-c4csc(C)n4)c3)ncnc2cc1OC(C)(C)C
17,0.48 µM,CCOc1cc2ncnc(Nc3cc(-c4csc(C)n4)ccc3F)c2cc1OCC
18,2.4 µM,C#Cc1cccc(Nc2ncnc3cc(OCC)c(OCC)cc23)c1
19,1.7 µM,CCOc1cc2ncnc(Nc3cc(-c4csc(C)n4)ccc3Cl)c2cc1OCC
20,1.7 µM,CN(C)C(=O)CCc1c(C(=O)O)[nH]c2cc(Cl)cc(Cl)c12
